Results: patent publication US6825230B2, “Spiro and dispiro 1,2,4-trixolane antimalarials” (Medicines for Malaria Venture MMV, priority 2002, dated 2004)
Converted amounts (≈) assume the structure as drawn. Like-named read-outs stand apart in the source and are kept apart here.

How the values were obtained:
[1] = tested on: chloroquine-sensitive NF54 strain of P. falciparum; test: In vitro antimalarial semiautomated microdilution assay ([3H]-hypoxanthine incorporation), NF54 strain; type: cell-based, Plasmodium falciparum; conditions: Plasmodium falciparum
Experimental: (§1) Various OZ compounds were tested by the semiautomated microdilution assay against intraerythrocytic forms of Plasmodium falciparum derived from asynchronous stock cultures.
(§2) Fifty percent inhibitory concentration (IC50) were estimated by Logit regression analysis.

[2] = tested on: ANKA strain of P. berghei; test: Single dose STI in vivo screen in infected mice; design: species or system Plasmodium berghei; conditions: for Survival (days) 10 mg/kg po: single 10 mg/kg po in 3% ethanol and 7% Tween 80; for Survival (days) 10 mg/kg po / Survival (days) 10 mg/kg SSV po / Survival (days) 10 mg/kg sc: untreated 6-7 days; for Activity (%) 10 mg/kg po: single 10 mg/kg po in 3% ethanol and 7% Tween 80 on day 1 post-infection; for Activity (%) 10 mg/kg po / Activity (%) 10 mg/kg SSV po / Activity (%) 10 mg/kg sc / Activity (%) 3 mg/kg SSV po: percent reduction in parasitemia on day 3; for Survival (days) 10 mg/kg SSV po: single 10 mg/kg po in SSV; for Activity (%) 10 mg/kg SSV po: single 10 mg/kg po in standard suspending vehicle (SSV) on day 1 post-infection; for Survival (days) 10 mg/kg sc: single 10 mg/kg sc in 3% ethanol and 7% Tween 80; for Activity (%) 10 mg/kg sc: single 10 mg/kg sc in 3% ethanol and 7% Tween 80 on day 1 post-infection; for Survival (days) 3 mg/kg SSV po / Activity (%) 3 mg/kg SSV po: single 3 mg/kg po in SSV
Experimental: In the single dose STI in vivo screen, Moro SPF or NMRI mice infected with the ANKA strain of P. berghei (groups of three mice) were treated on day one post-infection with trioxolanes dissolved or suspended in 3% ethanol and 7% Tween 80. […] SSV consists of 0.5% w/v CMC, 0.5% v/v benzyl alcohol, 0.4% v/v Tween 80, and 0.9% w/v sodium chloride in water. Antimalarial activity was measured by percent reduction in parasitemia on day three post-infection and survival times compared to an untreated control group. Survival to day 30 post-infection is considered to be a cure. […] Other factors influencing antimalarial activity include the stability of carbon radicals formed by β-scission subsequent to the initial electron transfer to the peroxide bond and the influence of steric effects remote from the peroxide bond on the interactions between carbon radicals and potential drug targets.
Moro NMRI male mice (Fu Albino specific pathogen free) weighing 18±2 g were infected intravenously (i.v.) with 2×10^7 P. berghei ANKA strain-infected erythrocytes from donor mice on day 0 of the experiment. From donor mice with circa 30% parasitemia, heparinized blood was taken and diluted in physiological saline to 10^8 parasitized erythrocytes per ml. An aliquot (0.2 ml) of this suspension was injected i.v. into experimental and control groups of mice. […] Throughout the experiments, mice were kept in groups of three or five animals in Makrolon type II cages in an air-conditioned animal room at 22 to 23° C.
They were administered per os (p.o.) in a total volume of 0.01 ml per gram of mouse. The activity of the compound was determined by a variety of methods outlined in subsequent sections. Survival time was also recorded, and survival to day 30 post-infection was considered to be a cure.

[3] = tested on: chloroquine-resistant K1 strain of P. falciparum; test: In vitro antimalarial semiautomated microdilution assay ([3H]-hypoxanthine incorporation), K1 strain; type: cell-based, Plasmodium falciparum; conditions: Plasmodium falciparum
Experimental: as §1, §2

[4] = chloroquine-sensitive NF54 strain, 72 h incubation, read-out: IC50 (ng/ml) NF54
[5] = chloroquine-resistant K1 strain, 72 h incubation, read-out: IC50 (ng/ml) K1
[6] = NF54, 72 h, read-out: IC50 (ng/ml) NF54, chloroquine-sensitive NF54 strain, 72 h incubation
[7] = K1, 72 h, read-out: IC50 (ng/ml) K1, chloroquine-resistant K1 strain, 72 h incubation

Structure (SMILES)	IC50 [1, 4] [ng/mL]	Survival (days) 10 mg/kg po [2] [days]	Activity (%) 10 mg/kg po [2] [%]	Survival (days) 10 mg/kg SSV po [2]	Activity (%) 10 mg/kg SSV po [2]	Survival (days) 10 mg/kg sc [2] [days]	Activity (%) 10 mg/kg sc [2] [%]	IC50 [3, 5] [ng/mL]	IC50 [1, 6] [ng/mL]	IC50 [3, 7] [ng/mL]	Survival (days) 3 mg/kg SSV po [2] [days]	Activity (%) 3 mg/kg SSV po [2] [%]
CC(C)(C)NC(=O)N[C@H]1CC[C@]2(CC1)OOC1(O2)C2CC3CC(C2)CC1C3 (stereo partly shown) [OZ222]	6.3 (≈ 16.6 nM)	7.7	87	7.0 days	75%	10.0	99.76	3.9 (≈ 10.3 nM)				
O=C(N1CCCC1)N1CCC2(CC1)OOC1(O2)C2CC3CC(C2)CC1C3 (stereo not shown) [OZ203, Adamantane-2-spiro-3′-8′-(1′-pyrrolidinylcarbonyl)-1′,2′,4′-trioxa-8′-azaspiro[4.5]decane]		7.3	87	8.7 days	99.42%	9.7	99.72		6.7 (≈ 18.5 nM)	3.9 (≈ 10.8 nM)		
OC1(Cc2ccccn2)CCC2(CC1)OOC1(O2)C2CC3CC(C2)CC1C3 (stereo not shown) [OZ275]				7.3/ND days	68/ND %				0.74 (≈ 1.99 nM)	0.66 (≈ 1.78 nM)		
BrC[C@H]1CC[C@]2(CC1)OOC1(O2)C2CC3CC(C2)CC1C3 (stereo partly shown) [OZ123]	1.9 (≈ 5.32 nM)	8.0	99.66	7.0 days	94%	16	99.96	1.6 (≈ 4.48 nM)				
N=C(N)NC[C@H]1CC[C@]2(CC1)OOC1(O2)C2CC3CC(C2)CC1C3 (stereo partly shown) [OZ237]		6.0	5	6.0 days	9%	6.7	52		7.1 (≈ 21.2 nM)	5.7 (≈ 17 nM)		
O=C1CCC(=O)N1C[C@H]1CC[C@]2(CC1)OOC1(O2)C2CC3CC(C2)CC1C3 (stereo partly shown) [OZ197]									2 (≈ 5.33 nM)	1 (≈ 2.66 nM)		
Fc1ccc(OC2CCC3(CC2)OOC2(O3)C3CC4CC(C3)CC2C4)cc1 (stereo not shown) [OZ193]		9.3	99.75	8.0 days	93%	11.0	99.92		8.3 (≈ 22.2 nM)	5.5 (≈ 14.7 nM)		
O=C(NC[C@H]1CC[C@]2(CC1)OO[C@]1(O2)C2CC3CC(C2)CC1C3)c1cccnc1 [OZ273]				11.7 days	99.58%			0.97 (≈ 2.43 nM)			7.2	64
O=CNCC(=O)NC[C@H]1CC[C@]2(CC1)OO[C@]1(O2)C2CC3CC(C2)CC1C3 [OZ322]				10.0 days	98%			0.9 (≈ 2.38 nM)			9.4	61
N[C@H]1CC[C@]2(CC1)OOC1(O2)C2CC3CC(C2)CC1C3 (stereo partly shown) [OZ137]		5.7	0	6.3 days	6%	7.0	61		18 (≈ 64.4 nM)			
CN(C)C(=O)N1CCC2(CC1)OOC1(O2)C2CC3CC(C2)CC1C3 (stereo not shown) [OZ133, Adamantane-2-spiro-3′-8′-[(dimethylamino)carbonyl]-1′,2′,4′-trioxa-8′-azaspiro[4.5]decane]		7.0	94	7.3 days	97%	7.0	72			0.7 (≈ 2.08 nM)		
CC(C)(C)CC(=O)N[C@H]1CC[C@]2(CC1)OOC1(O2)C2CC3CC(C2)CC1C3 (stereo partly shown) [OZ195]									3.7 (≈ 9.8 nM)	2.2 (≈ 5.83 nM)		
NCC[C@H]1CC[C@]2(CC1)OOC1(O2)C2CC3CC(C2)CC1C3 (stereo partly shown) [OZ229]									0.23 (≈ 0.748 nM)	0.24 (≈ 0.781 nM)		
[O-][n+]1ccccc1SC[C@H]1CC[C@]2(CC1)OO[C@]1(O2)C2CC3CC(C2)CC1C3 [OZ328]				8.6 days	99.77%						7.6	75
O=C(NC[C@H]1CC[C@]2(CC1)OO[C@]1(O2)C2CC3CC(C2)CC1C3)[C@@H]1CCCN1 [OZ337]				8.6 days								97
O=C(NC[C@H]1CC[C@]2(CC1)OO[C@]1(O2)C2CC3CC(C2)CC1C3)N1CCOCC1 [OZ272]				10.3 days	98%						6.6	49
CC(C)N(C(=O)N1CCC2(CC1)OOC1(O2)C2CC3CC(C2)CC1C3)C(C)C (stereo not shown) [OZ194, Adamantane-2-spiro-3′-8′-[(diisopropylamino)carbonyl]-1′,2′,4′-trioxa-8′-azaspiro[4.5]decane]		8.3	87	8.0 days	73%	20.3	99.95		6.6 (≈ 16.8 nM)			
NC(=O)CCNC[C@H]1CC[C@]2(CC1)OO[C@]1(O2)C2CC3CC(C2)CC1C3 [OZ319]									0.91 (≈ 2.5 nM)	0.41 (≈ 1.12 nM)		
C1CCC(NC2CCC3(CC2)OOC2(O3)C3CC4CC(C3)CC2C4)CC1 (stereo not shown) [OZ162]									0.71 (≈ 1.96 nM)	0.5 (≈ 1.38 nM)		
CCOC(=O)NC[C@H]1CC[C@]2(CC1)OO[C@]1(O2)C2CC3CC(C2)CC1C3 [OZ289]	0.56 (≈ 1.53 nM)			13.4 days	99.94%						7.4	92
O=C(COc1ccc(Cl)cc1)N1CCC2(CC1)OOC1(O2)C2CC3CC(C2)CC1C3 (stereo not shown) [OZ101, Adamantane-2-spiro-3′-8′-(4′-chlorophenoxyacetyl)-1′,2′,4′-trioxa-8′-azaspiro[4.5]decane]		6.3	44	5.3 days	0%	13	99.97					
